# Experiment: Dynamic viscosity of crude/dimethyl sulfide blends, closed cup rheometer
# Assay type: physicochemical
# Description: The quality of dimethyl sulfide as an oil recovery agent based on the crude oil viscosity lowering properties of dimethyl sulfide was evaluated. Three crude oils having widely disparate viscosity characteristics—an African Waxy crude, a Middle Eastern asphaltic crude, and a Canadian asphaltic crude—were blended with dimethyl sulfide.
# A control sample of each crude was prepared containing no dimethyl sulfide, and samples of each crude were prepared and blended with dimethyl sulfide to prepare crude samples containing increasing concentrations of dimethyl sulfide. The samples were heated to 60° C. to dissolve any waxes therein and to permit weighing of a homogeneous liquid. The samples were weighed, allowed to cool overnight, then blended with a selected quantity of dimethyl sulfide. The samples of the crude/dimethyl sulfide blend were then heated to 60° C. and mixed to ensure homogeneous blending of the dimethyl sulfide in the samples. Absolute (dynamic) viscosity measurements of each of the samples were taken using a closed cup rheometer using a PZ39 rotor sensor assembly in the rheometer. Viscosity measurements of each of the samples of the West African waxy crude and the Middle Eastern asphaltic crude were taken at 20° C., 40° C., 60° C., 80° C., and then again at 20° C. after cooling from 80° C., where the second measurement at 20° C. is taken to measure the viscosity without the presence of waxes since wax formation occurs slowly enough to permit viscosity measurement at 20° C. without the presence of wax. Viscosity measurements of each of the samples of the Canadian asphaltic crude were taken at 5° C., 10° C., 20° C., 40° C., 60° C., 80° C., The measured viscosities for each of the crudes are shown in Tables 4, 5, and 6 below.
compound,measurement,setting,value
"CSC [Dimethyl Sulfide, dimethyl sulfide]",Viscosity of West African Waxy Crude,"1.21 wt. % DMS, 20° C.",125.8 mPa s
same,Viscosity of West African Waxy Crude,"1.21 wt. % DMS, 20° C. after cooling from 80° C.",100.1 mPa s
same,Viscosity of West African Waxy Crude,"1.21 wt. % DMS, 40° C.",30.94 mPa s
same,Viscosity of West African Waxy Crude,"1.21 wt. % DMS, 60° C.",14.66 mPa s
same,Viscosity of West African Waxy Crude,"1.21 wt. % DMS, 80° C.",8.92 mPa s
same,Viscosity of Middle Eastern Asphaltic Crude,"1.3 wt. % DMS, 20° C.",1733.8 mPa s
same,Viscosity of Middle Eastern Asphaltic Crude,"1.3 wt. % DMS, 20° C. after cooling from 80° C.",1624.8 mPa s
same,Viscosity of Middle Eastern Asphaltic Crude,"1.3 wt. % DMS, 40° C.",334.5 mPa s
same,Viscosity of Middle Eastern Asphaltic Crude,"1.3 wt. % DMS, 60° C.",106.7 mPa s
same,Viscosity of Middle Eastern Asphaltic Crude,"1.3 wt. % DMS, 80° C.",44.6 mPa s
same,Viscosity of Topped Canadian Asphaltic Crude,"1.43 wt. % DMS, 20° C.",212525 mPa s
same,Viscosity of Topped Canadian Asphaltic Crude,"1.43 wt. % DMS, 40° C.",14721 mPa s
same,Viscosity of Topped Canadian Asphaltic Crude,"1.43 wt. % DMS, 60° C.",2209 mPa s
same,Viscosity of Topped Canadian Asphaltic Crude,"1.43 wt. % DMS, 80° C.",538 mPa s
same,Viscosity of Topped Canadian Asphaltic Crude,"2.07 wt. % DMS, 20° C.",134880 mPa s
same,Viscosity of Topped Canadian Asphaltic Crude,"2.07 wt. % DMS, 40° C.",10523 mPa s
same,Viscosity of Topped Canadian Asphaltic Crude,"2.07 wt. % DMS, 60° C.",1747 mPa s
same,Viscosity of Topped Canadian Asphaltic Crude,"2.07 wt. % DMS, 80° C.",427 mPa s
same,Viscosity of West African Waxy Crude,"2.48 wt. % DMS, 20° C.",122.3 mPa s
same,Viscosity of West African Waxy Crude,"2.48 wt. % DMS, 20° C. after cooling from 80° C.",89.23 mPa s
same,Viscosity of West African Waxy Crude,"2.48 wt. % DMS, 40° C.",30.53 mPa s
same,Viscosity of West African Waxy Crude,"2.48 wt. % DMS, 60° C.",13.66 mPa s
same,Viscosity of West African Waxy Crude,"2.48 wt. % DMS, 80° C.",8.44 mPa s
same,Viscosity of Middle Eastern Asphaltic Crude,"2.6 wt. % DMS, 20° C.",1026.6 mPa s
same,Viscosity of Middle Eastern Asphaltic Crude,"2.6 wt. % DMS, 20° C. after cooling from 80° C.",881.1 mPa s
same,Viscosity of Middle Eastern Asphaltic Crude,"2.6 wt. % DMS, 40° C.",219.9 mPa s
same,Viscosity of Middle Eastern Asphaltic Crude,"2.6 wt. % DMS, 60° C.",76.5 mPa s
same,Viscosity of Middle Eastern Asphaltic Crude,"2.6 wt. % DMS, 80° C.",34.3 mPa s
same,Viscosity of Topped Canadian Asphaltic Crude,"4.87 wt. % DMS, 20° C.",28720 mPa s
same,Viscosity of Topped Canadian Asphaltic Crude,"4.87 wt. % DMS, 40° C.",3235 mPa s
same,Viscosity of Topped Canadian Asphaltic Crude,"4.87 wt. % DMS, 60° C.",985 mPa s
same,Viscosity of Topped Canadian Asphaltic Crude,"4.87 wt. % DMS, 80° C.",328 mPa s
same,Viscosity of West African Waxy Crude,"5.03 wt. % DMS, 20° C.",78.37 mPa s
same,Viscosity of West African Waxy Crude,"5.03 wt. % DMS, 20° C. after cooling from 80° C.",55.21 mPa s
same,Viscosity of West African Waxy Crude,"5.03 wt. % DMS, 40° C.",20.24 mPa s
same,Viscosity of West African Waxy Crude,"5.03 wt. % DMS, 60° C.",10.45 mPa s
same,Viscosity of West African Waxy Crude,"5.03 wt. % DMS, 80° C.",6.55 mPa s
same,Viscosity of Middle Eastern Asphaltic Crude,"5.3 wt. % DMS, 20° C.",496.5 mPa s
same,Viscosity of Middle Eastern Asphaltic Crude,"5.3 wt. % DMS, 20° C. after cooling from 80° C.",503.5 mPa s
same,Viscosity of Middle Eastern Asphaltic Crude,"5.3 wt. % DMS, 40° C.",134.2 mPa s
same,Viscosity of Middle Eastern Asphaltic Crude,"5.3 wt. % DMS, 60° C.",52.2 mPa s
same,Viscosity of Middle Eastern Asphaltic Crude,"5.3 wt. % DMS, 80° C.",25.5 mPa s
same,Viscosity of Middle Eastern Asphaltic Crude,"7.6 wt. % DMS, 20° C.",288.0 mPa s
same,Viscosity of West African Waxy Crude,"7.60 wt. % DMS, 20° C.",60.92 mPa s
same,Viscosity of Middle Eastern Asphaltic Crude,"7.6 wt. % DMS, 20° C. after cooling from 80° C.",290.0 mPa s
same,Viscosity of West African Waxy Crude,"7.60 wt. % DMS, 20° C. after cooling from 80° C.",40.89 mPa s
same,Viscosity of Middle Eastern Asphaltic Crude,"7.6 wt. % DMS, 40° C.",89.4 mPa s
same,Viscosity of West African Waxy Crude,"7.60 wt. % DMS, 40° C.",17.08 mPa s
same,Viscosity of Middle Eastern Asphaltic Crude,"7.6 wt. % DMS, 60° C.",37.4 mPa s
same,Viscosity of West African Waxy Crude,"7.60 wt. % DMS, 60° C.",9.29 mPa s
same,Viscosity of Middle Eastern Asphaltic Crude,"7.6 wt. % DMS, 80° C.",19.3 mPa s
same,Viscosity of West African Waxy Crude,"7.60 wt. % DMS, 80° C.",6.09 mPa s
same,Viscosity of Topped Canadian Asphaltic Crude,"8.01 wt. % DMS, 20° C.",5799 mPa s
same,Viscosity of Topped Canadian Asphaltic Crude,"8.01 wt. % DMS, 40° C.",982 mPa s
same,Viscosity of Topped Canadian Asphaltic Crude,"8.01 wt. % DMS, 60° C.",275 mPa s
same,Viscosity of Topped Canadian Asphaltic Crude,"8.01 wt. % DMS, 80° C.",106 mPa s
same,Viscosity of Topped Canadian Asphaltic Crude,"9.80 wt. % DMS, 20° C.",2760 mPa s
same,Viscosity of Topped Canadian Asphaltic Crude,"9.80 wt. % DMS, 40° C.",571 mPa s
same,Viscosity of Topped Canadian Asphaltic Crude,"9.80 wt. % DMS, 60° C.",173 mPa s
same,Viscosity of Topped Canadian Asphaltic Crude,"9.80 wt. % DMS, 80° C.",73 mPa s
same,Viscosity of West African Waxy Crude,"9.95 wt. % DMS, 20° C.",44.70 mPa s
same,Viscosity of West African Waxy Crude,"9.95 wt. % DMS, 20° C. after cooling from 80° C.",30.61 mPa s
same,Viscosity of West African Waxy Crude,"9.95 wt. % DMS, 40° C.",13.03 mPa s
same,Viscosity of West African Waxy Crude,"9.95 wt. % DMS, 60° C.",7.58 mPa s
same,Viscosity of West African Waxy Crude,"9.95 wt. % DMS, 80° C.",5.04 mPa s
same,Viscosity of Middle Eastern Asphaltic Crude,"10.1 wt. % DMS, 20° C.",150.0 mPa s
same,Viscosity of Middle Eastern Asphaltic Crude,"10.1 wt. % DMS, 20° C. after cooling from 80° C.",150.5 mPa s
same,Viscosity of Middle Eastern Asphaltic Crude,"10.1 wt. % DMS, 40° C.",52.4 mPa s
same,Viscosity of Middle Eastern Asphaltic Crude,"10.1 wt. % DMS, 60° C.",24.5 mPa s
same,Viscosity of Middle Eastern Asphaltic Crude,"10.1 wt. % DMS, 80° C.",13.5 mPa s
same,Viscosity of Topped Canadian Asphaltic Crude,"14.81 wt. % DMS, 5° C.",1794 mPa s
same,Viscosity of Topped Canadian Asphaltic Crude,"14.81 wt. % DMS, 10° C.",1155 mPa s
same,Viscosity of Topped Canadian Asphaltic Crude,"14.81 wt. % DMS, 20° C.",548 mPa s
same,Viscosity of Topped Canadian Asphaltic Crude,"14.81 wt. % DMS, 40° C.",159 mPa s
same,Viscosity of Topped Canadian Asphaltic Crude,"14.81 wt. % DMS, 60° C.",64 mPa s
same,Viscosity of Topped Canadian Asphaltic Crude,"14.81 wt. % DMS, 80° C.",32 mPa s
same,Viscosity of West African Waxy Crude,"15.13 wt. % DMS, 20° C.",23.96 mPa s
same,Viscosity of West African Waxy Crude,"15.13 wt. % DMS, 20° C. after cooling from 80° C.",17.64 mPa s
same,Viscosity of West African Waxy Crude,"15.13 wt. % DMS, 40° C.",8.32 mPa s
same,Viscosity of West African Waxy Crude,"15.13 wt. % DMS, 60° C.",4.97 mPa s
same,Viscosity of West African Waxy Crude,"15.13 wt. % DMS, 80° C.",3.38 mPa s
same,Viscosity of Middle Eastern Asphaltic Crude,"15.2 wt. % DMS, 20° C.",59.4 mPa s
same,Viscosity of Middle Eastern Asphaltic Crude,"15.2 wt. % DMS, 20° C. after cooling from 80° C.",60.7 mPa s
same,Viscosity of Middle Eastern Asphaltic Crude,"15.2 wt. % DMS, 40° C.",25.2 mPa s
same,Viscosity of Middle Eastern Asphaltic Crude,"15.2 wt. % DMS, 60° C.",13.6 mPa s
same,Viscosity of Middle Eastern Asphaltic Crude,"15.2 wt. % DMS, 80° C.",8.2 mPa s
same,Viscosity of West African Waxy Crude,"19.30 wt. % DMS, 20° C.",15.26 mPa s
same,Viscosity of West African Waxy Crude,"19.30 wt. % DMS, 20° C. after cooling from 80° C.",12.06 mPa s
same,Viscosity of West African Waxy Crude,"19.30 wt. % DMS, 40° C.",6.25 mPa s
same,Viscosity of West African Waxy Crude,"19.30 wt. % DMS, 60° C.",4.05 mPa s
same,Viscosity of West African Waxy Crude,"19.30 wt. % DMS, 80° C.",2.92 mPa s
same,Viscosity of Topped Canadian Asphaltic Crude,"19.78 wt. % DMS, 20° C.",188 mPa s
same,Viscosity of Topped Canadian Asphaltic Crude,"19.78 wt. % DMS, 40° C.",69 mPa s
same,Viscosity of Topped Canadian Asphaltic Crude,"19.78 wt. % DMS, 60° C.",33 mPa s
same,Viscosity of Topped Canadian Asphaltic Crude,"19.78 wt. % DMS, 80° C.",19 mPa s
same,Viscosity of Middle Eastern Asphaltic Crude,"20.1 wt. % DMS, 20° C.",29.9 mPa s
same,Viscosity of Middle Eastern Asphaltic Crude,"20.1 wt. % DMS, 20° C. after cooling from 80° C.",31.0 mPa s
same,Viscosity of Middle Eastern Asphaltic Crude,"20.1 wt. % DMS, 40° C.",14.8 mPa s
same,Viscosity of Middle Eastern Asphaltic Crude,"20.1 wt. % DMS, 60° C.",8.7 mPa s
same,Viscosity of Middle Eastern Asphaltic Crude,"20.1 wt. % DMS, 80° C.",5.7 mPa s
same,Viscosity of Topped Canadian Asphaltic Crude,"29.88 wt. % DMS, 5° C.",113 mPa s
same,Viscosity of Topped Canadian Asphaltic Crude,"29.88 wt. % DMS, 10° C.",81 mPa s
same,Viscosity of Topped Canadian Asphaltic Crude,"29.88 wt. % DMS, 20° C.",51 mPa s
same,Viscosity of Topped Canadian Asphaltic Crude,"29.88 wt. % DMS, 40° C.",22 mPa s
same,Viscosity of Topped Canadian Asphaltic Crude,"29.88 wt. % DMS, 60° C.",13 mPa s
same,Viscosity of Topped Canadian Asphaltic Crude,"29.88 wt. % DMS, 80° C.",8 mPa s
same,Viscosity of Topped Canadian Asphaltic Crude,"39.61 wt. % DMS, 5° C.",23 mPa s
same,Viscosity of Topped Canadian Asphaltic Crude,"39.61 wt. % DMS, 10° C.",20 mPa s
same,Viscosity of Topped Canadian Asphaltic Crude,"39.61 wt. % DMS, 20° C.",14 mPa s
same,Viscosity of Topped Canadian Asphaltic Crude,"39.61 wt. % DMS, 40° C.",8 mPa s
same,Viscosity of Topped Canadian Asphaltic Crude,"39.61 wt. % DMS, 60° C.",6 mPa s
same,Viscosity of Topped Canadian Asphaltic Crude,"39.61 wt. % DMS, 80° C.",4 mPa s
same,"lowering the viscosity of a crude oil, in words","all three crudes, particularly Canadian asphaltenic crude oil",effective for significantly lowering the viscosity of a crude oil

# Reference: US9399904B2, “Oil recovery system and method” (SHELL OIL COMPANY, priority 2013, dated 2016)
